The subject of experiment [1] is MCP-1 induced chemotaxis of THP-1 cells. Briefly: MCP-1 Induced Chemotaxis in THP-1 Cells. The following applies: Homo sapiens, MCP-1 0.01 μg/mL, 3 hours at 37° C., read-out: Inhibition of MCP-1 Induced Chemotaxis IC50. It counts as cell-based.
In experiment [2] the target is T1, CCR2 (Homo sapiens, UniProt P41597).
T1 construct: host or cells: THP-1 cells
T1 sequence (P41597 1-360 isoform P41597-2): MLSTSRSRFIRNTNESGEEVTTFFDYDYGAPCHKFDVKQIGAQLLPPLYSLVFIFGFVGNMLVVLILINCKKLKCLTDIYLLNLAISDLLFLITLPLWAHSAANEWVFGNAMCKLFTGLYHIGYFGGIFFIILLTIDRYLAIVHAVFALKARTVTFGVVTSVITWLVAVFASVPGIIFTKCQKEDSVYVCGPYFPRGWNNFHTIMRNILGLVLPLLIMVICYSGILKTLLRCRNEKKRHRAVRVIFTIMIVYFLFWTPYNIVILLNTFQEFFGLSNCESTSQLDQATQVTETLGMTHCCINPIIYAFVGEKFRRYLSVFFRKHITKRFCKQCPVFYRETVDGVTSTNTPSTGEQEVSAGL
Briefly: MCP-1 Receptor Binding Assay in THP-1 Cells. The following applies: THP-1 cells, 0.5 nM 125I labeled MCP-1, 2 hours at 30° C.; read-out: Inhibition of MCP-1 Binding IC50. A digest of the protocol: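 Whole THP-1 cells incubated 2 h at 30° C with 0.5 nM 125I-MCP-1 and varying compound concentrations; bound radioactivity harvested on filters and counted by scintillation. Nonspecific binding with 1 μM cold MCP-1; IC50 for inhibition of binding versus vehicle.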

Experiment [3] deals with MCP-1 induced calcium ion influx in THP-1 cells. Briefly: MCP-1 Induced Calcium Mobilization in THP-1 Cells. It is filed as cell-based. The following applies: Homo sapiens, THP-1, THP-1 cells, 0.2 μM MCP-1, FLIPR; read-out: Inhibition of MCP-1 Induced Calcium Ion Influx IC50. A digest of the protocol:
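Fluo-3-loaded (5 μM, 45 min) THP-1 cells preincubated 15 min with compound. Calcium change after 0.2 μM MCP-1 addition read by FLIPR relative to vehicle; IC50 values derived.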

Turning to `O=C(/C=C/c1cc(F)cc(F)c1)N1CCC(O)(C(O)CN2CCC(c3ccc(Cl)cc3)CC2)CC1` (stereo not drawn) [Compound 164], the IC50 in experiment [1] is 2 nM; in experiment [2], 50 nM; in experiment [3] it was 60 nM.
On the same counts, the results for `O=C(Nc1ccc(Cl)c(Cl)c1)N1CCC(O)(C(O)CN2CCC(c3ccc(Cl)cc3)CC2)CC1` (stereo not drawn) [Compound 165, 4-{2-[4-(4-chloro-phenyl)-piperidin-1-yl]-1-hydroxy-ethyl}-4-hydroxy-piperidine-1-carboxylic acid (3,4-dichloro-phenyl)-amide] are 120 nM, 50 nM and 900 nM.
On the same counts, the results for `O=C(Nc1ccc(Cl)c(Cl)c1)N1CCC(O)(C(O)CN2CCC(c3c[nH]c4ccc(F)cc34)CC2)CC1` (stereo not drawn) [Compound 167, 4-{2-[4-(5-fluoro-1H-indol-3-yl)-piperidin-1-yl]-1-hydroxy-ethyl}-4-hydroxy-piperidine-1-carboxylic acid (3,4-dichloro-phenyl)-amide] are 4 nM, 460 nM and 940 nM.
Taken in the same sequence, the figures for `O=C(Nc1ccc(Cl)c(Cl)c1)N1CCC(O)(C(O)CN2CCC(c3c[nH]c4ccc(N5CCOCC5)cc34)CC2)CC1` (stereo not drawn) [Compound 181, 4-hydroxy-4-{1-hydroxy-2-[4-(5-morpholin-4-yl-1H-indol-3-yl)-piperidin-1-yl]-ethyl}-piperidine-1-carboxylic acid (3,4-dichloro-phenyl)-amide] were 180 nM, 270 nM and 2100 nM.
